Measured values taken from patent US10813929B2, “Treating cancer with ATR inhibitors” (VERTEX PHARMACEUTICALS INCORPORATED, priority 2011, dated 2020).

Legend:
pancreatic cancer cells = assay: Cell cycle analysis by flow cytometry after irradiation; type: cell-based; conditions: 1 μM VE-821 1 h prior to 6 Gy; FIG. 7 (hypoxic), FIG. 4
Experimental: VE-821 (1 μM) was added 1 h prior to 6 Gy irradiation and left for the duration of the experiment. Cells were lifted and fixed at 12 h or 24 h after irradiation, stained with propidium iodide and analysed for cell cycle distribution by flow cytometry (n=3) Cells were pre-incubated under hypoxic (0.5% O2) conditions for 6 h and 1 μM VE-821 was added 1 h prior to irradiation (6 Gy). Cells were transferred to normoxia 1 h after irradiation and were lifted and fixed at 12 h or 24 h after irradiation, stained with propidium iodide and analysed for cell cycle distribution by flow cytometry (n=3). Cells growing in 6-well dishes were treated with 1 μM VE-821 drug 1 h prior to 6 Gy irradiation. Cells were incubated for 6 h before irradiation under oxia (21% O2) or hypoxia (0.5% O2) using tightly sealed chambers. At multiple time points, cells were lifted in trypsin and fixed in 70% ethanol and stored at 4° C. Cells were incubated with propidium iodide (50 μg/ml in PBS containing 200 μg/ml RNAse) for 1 h at room temperature and analysed by flow cytometry (FACSort, Becton Dickinson). Cell cycle phase was quantitated using ModFit Cell Cycle Analysis software.

[1] = test system: HeLa, PSN1, MiaPaca cells; assay: Radiosensitivity assays of FIGS. 8 to 12 (clonogenic survival, foci, cell cycle); type: cell-based
Experimental: Small scale clonogenic survival assays were performed on HeLa cells treated with the different ATR inhibitors at increasing concentrations followed by irradiation at 6 Gy. Data is plotted as decrease in clonogenic survival in relation to the DMSO-treated cells for both irradiated (SF 6 Gy, pink line) and unirradiated cells (plating efficiency, PE; blue line). A high degree of increased radiosensitivity can be seen as a large decrease in survival after irradiation accompanied by a small decrease in unirradiated survival at a specific drug concentration.
FIG. 9. […] PSN1 and MiaPaca cells were plated at low densities, treated with the drugs indicated and assessed for clonogenic survival. • B) Clonogenic survival of PSN1, MiaPaca, and MRCS cells pretreated with Compounds 821, 822, 823 and 824 drugs followed by irradiation. Cells were plated at low densities, treated with drugs indicated 1 h prior to irradiation and assessed for clonogenic survival.
MiaPaca cells were plated at low densities and drug was added at various time points in relation to the 4 Gy radiation treatment: 1 h prior to IR, 5 min after IR, 2 h or 4 h after IR; and removed at various time points. […] Clonogenic survival was assessed after 14 days. […]
FIG. 11. […] The percentage of cells containing more than a certain number of foci was quantitated. • B) Time course of DNA damage foci. […]

[2] = test system: pancreatic cancer cell lines; assay: Pancreatic cancer cell screen, CellTiter-Glo cell viability assay; type: cell-based
Experimental: All cell lines were seeded in 30 μl of tissue culture medium containing 10% FBS into 384-well opaque-bottom plates. The seeding density was based on the logarithmic growth rate of each cell line. After 24 hours, compound stock solutions were added to each well to afford a matrix consisting of 9 concentrations for VE-822 and 7 concentrations for Gemcitabine and Cisplatin. Each well contains either, agent alone or a combination of both agents. The final concentration ranges were as follows: VE-822, 0.3 nM-2 μM; Gemcitabine, 0.3 nM-0.22 μM; Cisplatin, 30 nM-20 μM. The cells were then incubated for 96 hours at 37° C. in an atmosphere of 5% CO2 and 95% humidity.
This assay measures the number of viable cells in a culture based on the quantitation of ATP, which is present in metabolically active cells.
CellTiter-Glo Reagent (Promega, Madison, Wis., USA) was prepared according to the manufacturer's instructions and added 96 hours after compound addition (25 μl/well) to measure cell viability. Luminescence signal was measured with the PHERAStarFS (BMG Labtech, Cary, N.C., USA) automated plate reader. […]
Raw luminescence CellTiter-Glo (CTG) values were normalized to the mean CTG value for the negative control DMSO-treated samples on each assay plate. IC50 values for chemotoxic alone were calculated using DMSO-normalized cell survival values for the samples treated with chemotoxic compound alone. […]

[3] = test system: MiaPaCa pancreatic cancer xenograft; assay: MiaPaCa pancreatic cancer xenograft model with ionizing radiation; type: in vivo; conditions: FIG. 13

Structure (SMILES) | damage-induced cell cycle checkpoints (pancreatic cancer cells) | sensitization of cancer cells to radiation therapy [1] | synergy with cisplatin and gemcitabine in pancreatic cancer cell lines ([2]; maximum shift in IC50 of each chemotoxic, 96 hours, FIG. 18) | synergy (shift in IC50 of chemotoxic) in pancreatic cancer cell lines ([2]; with chemotoxics, FIG. 19) | antitumor effects of ionizing radiation (tumor volume over time) [3]
CS(=O)(=O)c1ccc(-c2cnc(N)c(C(=O)Nc3ccccc3)n2)cc1 [VE-821] | disrupts damage-induced cell cycle checkpoints | sensitize cancer cells to radiation therapy | – | – | –
CNCc1ccc(-c2cc(-c3nc(-c4ccc(S(=O)(=O)C(C)C)cc4)cnc3N)on2)cc1 [VE-822] | – | sensitize cancer cells to radiation therapy | Synergizes with Cisplatin and Gemcitabine | Greater than 3 fold | enhances the antitumor effects of ionizing radiation
